This experiment concerns the target T1, γ-secretase (Homo sapiens, UniProt P49768).
T1 construct: uses a HEK293 membrane fraction as a source of γ-secretase; endogenous in cells; host or cells: HEK293 (microsomal membrane fraction, solubilised in 0.25% CHAPSO)
Put plainly: in vitro assay of γ-secretase activity (HEK293 membrane fraction, recombinant APP substrate, Abeta ELISA). It is filed as biochemical. The note with it: γ-secretase inhibition; HEK293 membrane fraction solubilized in 0.25% CHAPSO, recombinant human APP C-terminal 100 amino acids substrate, Abeta detected by ELISA. The source says:
Description of 1γ-Secretase Assay The activity of test compounds can be evaluated in assays which measure the proteolytic cleavage of suitable substrates by γ-secretase activity. These can be cellular assays where e.g., a substrate of the γ-secretase is fused in its cytoplasmic domain to a transcription factor. Cells are transfected with this fusion gene and a reporter gene, e.g., firefly luciferase, which expression is enhanced by the transcription factor. Cleavage of the fused substrate by γ-secretase will lead to expression of the reporter gene which can be monitored in appropriate assays. The γ-secretase activity can also be determined in cell-free in vitro assays where e.g., a cell lysate containing the γ-secretase complex is incubated with a suitable APP-derived substrate which is cleaved to the Abeta peptides. The amount of produced peptides can be determined with specific ELISA assays. Cell lines of neuronal origin secrete Abeta peptides which can be measured with the specific ELISA assay. Treatment with compounds which inhibit γ-secretase leads to a reduction of secreted Abeta thus providing a measure of inhibition. The in vitro assay of γ-secretase activity uses a HEK293 membrane fraction as a source of γ-secretase and a recombinant APP substrate. Latter consist of the C-terminal 100 amino acids of human APP fused to a 6× Histidin tail for purification which is expressed in E. coli in a regulatable expression vector, e.g. pEt15. This recombinant protein corresponds to the truncated APP fragment which results after […] of the extracellular domain and which constitutes the γ-secretase substrate. The assay principle is described in Li Y M et al, PNAS 97(11), 6138-6143 (2000). Hek293 cells are mechanically disrupted and the microsomal fraction is isolated by differential centrifugation. The membranes are solubilized in detergent (0.25% CHAPSO) and incubated with the APP substrate. The Abeta peptides which are produced by γ-secretase cleavage of the substrate are detected by specific ELISA assays as described (Brockhaus M et al, Neuroreport 9(7), 1481-1486 (1998).
A general note: In an ELISA, binding on a coated surface is turned into a signal by an enzyme label.

Molecules are shown by their SMILES.

As for `CC(F)(C(=O)NCC(F)(F)C(F)(F)F)C(=O)N[C@@H]1C(=O)N(CCO)c2ccccc2-c2ccccc21` (stereo partly drawn) [Example 16, 2-Fluoro-N—[(S)-5-(2-hydroxy-ethyl)-6-oxo-6,7-dihydro-5H-dibenzo[b,d]azepin-7-yl]-2-methyl-N′-(2,2,3,3,3-pentafluoro-propyl)-malonamide], the 50% inhibitory concentration (IC50) came to 3 nM. In the case of `CCOC(C(=O)NCC(F)(F)C(F)(F)F)C(=O)N[C@@H]1C(=O)N(CCO)c2ccccc2-c2ccccc21` (stereo partly drawn) [Example 17, 2-Ethoxy-N—[(S)-5-(2-hydroxy-ethyl)-6-oxo-6,7-dihydro-5H-dibenzo[b,d]azepin-7-yl]-N′-(2,2,3,3,3-pentafluoro-propyl)-malonamide], the IC50 came out at 4 nM. Next, `C[C@@](F)(C(=O)NCC(F)(F)C(F)(F)F)C(=O)N[C@@H]1C(=O)N(CCOCc2ccccc2)c2ccccc2-c2ccccc21` [Example 22, (R)—N—[(S)-5-(2-Benzyloxy-ethyl)-6-oxo-6,7-dihydro-5H-dibenzo[b,d]azepin-7-yl]-2-fluoro-2-methyl-N′-(2,2,3,3,3-pentafluoro-propyl)-malonamide]: 2 nM. As for `C[C@](F)(C(=O)NCC(F)(F)C(F)(F)F)C(=O)N[C@@H]1C(=O)N(CCOCc2ccccc2)c2ccccc2-c2ccccc21` [Example 23, (S)—N—[(S)-5-(2-Benzyloxy-ethyl)-6-oxo-6,7-dihydro-5H-dibenzo[b,d]azepin-7-yl]-2-fluoro-2-methyl-N′-(2,2,3,3,3-pentafluoro-propyl)-malonamide], the figure is 16 nM. As for `COCCN1C(=O)[C@@H](NC(=O)CC(=O)NCC(F)(F)C(F)(F)F)c2ccccc2-c2ccccc21` [Example 24, N—[(S)-5-(2-Methoxy-ethyl)-6-oxo-6,7-dihydro-5H-dibenzo[b,d]azepin-7-yl]-N′-(2,2,3,3,3-pentafluoro-propyl)-malonamide], the IC50 was 34 nM.

On to `COCCN1C(=O)[C@@H](NC(=O)[C@H](C)OC(=O)NCC(F)(F)C(F)(F)F)c2ccccc2-c2ccccc21` [Example 25, (2,2,3,3,3-Pentafluoro-propyl)-carbamic acid (S)-1-[(S)-5-(2-methoxy-ethyl)-6-oxo-6,7-dihydro-5H-dibenzo[b,d]azepin-7-ylcarbamoyl]-ethyl ester], for which the IC50 worked out at 6 nM. In the case of `C[C@@](F)(C(=O)NCC(F)(F)C(F)(F)F)C(=O)N[C@@H]1C(=O)N(CCO)c2ccccc2-c2ccccc21` [Example 26, (R)-2-Fluoro-N—[(S)-5-(2-hydroxy-ethyl)-6-oxo-6,7-dihydro-5H-dibenzo[b,d]azepin-7-yl]-2-methyl-N′-(2,2,3,3,3-pentafluoro-propyl)-malonamide], the IC50 was found to be 1 nM. Take `C[C@](F)(C(=O)NCC(F)(F)C(F)(F)F)C(=O)N[C@@H]1C(=O)N(CCO)c2ccccc2-c2ccccc21` [Example 27, (S)-2-Fluoro-N—[(S)-5-(2-hydroxy-ethyl)-6-oxo-6,7-dihydro-5H-dibenzo[b,d]azepin-7-yl]-2-methyl-N′-(2,2,3,3,3-pentafluoro-propyl)-malonamide]: the IC50 amounted to 4 nM. As for `O=C(CC(=O)N[C@@H]1C(=O)N(CCOCc2ccccc2)c2ccccc2-c2ccccc21)NCCC(F)(F)F` [Example 28, N—[(S)-5-(2-Benzyloxy-ethyl)-6-oxo-6,7-dihydro-5H-dibenzo[b,d]azepin-7-yl]-N′-(3,3,3-trifluoro-propyl)-malonamide], the figure is 68 nM; as for `O=C(CC(=O)N[C@@H]1C(=O)N(CCOCc2ccccc2)c2ccccc2-c2ccccc21)NCCC(F)(F)C(F)(F)F` [Example 29, N—[(S)-5-(2-Benzyloxy-ethyl)-6-oxo-6,7-dihydro-5H-dibenzo[b,d]azepin-7-yl]-N′-(3,3,4,4,4-pentafluoro-butyl)-malonamide], 18 nM. Next, `O=C(CC(=O)N[C@@H]1C(=O)N(CCO)c2ccccc2-c2ccccc21)NCCC(F)(F)F` [Example 30, N—[(S)-5-(2-Hydroxy-ethyl)-6-oxo-6,7-dihydro-5H-dibenzo[b,d]azepin-7-yl]-N′-(3,3,3-trifluoro-propyl)-malonamide]: 75 nM. Next, `O=C(CC(=O)N[C@@H]1C(=O)N(CCO)c2ccccc2-c2ccccc21)NCCC(F)(F)C(F)(F)F` [Example 31, N—[(S)-5-(2-Hydroxy-ethyl)-6-oxo-6,7-dihydro-5H-dibenzo[b,d]azepin-7-yl]-N′-(3,3,4,4,4-pentafluoro-butyl)-malonamide]: 200 nM. Consider `COCCN1C(=O)[C@@H](NC(=O)[C@@](C)(F)C(=O)NCC(F)(F)C(F)(F)F)c2ccccc2-c2ccccc21` [Example 32, (S)-2-Fluoro-N—[(S)-5-(2-methoxy-ethyl)-6-oxo-6,7-dihydro-5H-dibenzo[b,d]azepin-7-yl]-2-methyl-N′-(2,2,3,3,3-pentafluoro-propyl)-malonamide], for which the IC50 was 18 nM. Next, `COCCN1C(=O)[C@@H](NC(=O)[C@](C)(F)C(=O)NCC(F)(F)C(F)(F)F)c2ccccc2-c2ccccc21` [Example 33, (R)-2-Fluoro-N—[(S)-5-(2-methoxy-ethyl)-6-oxo-6,7-dihydro-5H-dibenzo[b,d]azepin-7-yl]-2-methyl-N′-(2,2,3,3,3-pentafluoro-propyl)-malonamide]: 4 nM; `COCCN1C(=O)[C@@H](NC(=O)C(C)(O)C(=O)NCC(F)(F)C(F)(F)F)c2ccccc2-c2ccccc21` (stereo partly drawn) [Example 34, 2-Hydroxy-N—[(S)-5-(2-methoxy-ethyl)-6-oxo-6,7-dihydro-5H-dibenzo[b,d]azepin-7-yl]-2-methyl-N′-(2,2,3,3,3-pentafluoro-propyl)-malonamide]: 4 nM; `C[C@H](OC(=O)NCCC(F)(F)F)C(=O)N[C@@H]1C(=O)N(CCOCc2ccccc2)c2ccccc2-c2ccccc21` [Example 35, (3,3,3-Trifluoro-propyl)-carbamic acid (S)-1-[(S)-5-(2-benzyloxy-ethyl)-6-oxo-6,7-dihydro-5H-dibenzo[b,d]azepin-7-ylcarbamoyl]-ethyl ester]: 22 nM.

`C[C@H](OC(=O)NCCC(F)(F)C(F)(F)F)C(=O)N[C@@H]1C(=O)N(CCOCc2ccccc2)c2ccccc2-c2ccccc21` [Example 36, (3,3,4,4,4-Pentafluoro-butyl)-carbamic acid (S)-1-[(S)-5-(2-benzyloxy-ethyl)-6-oxo-6,7-dihydro-5H-dibenzo[b,d]azepin-7-ylcarbamoyl]-ethyl ester]: the IC50 is 13 nM.

`C[C@H](OC(=O)NCC(F)(F)F)C(=O)N[C@@H]1C(=O)N(CCOCc2ccccc2)c2ccccc2-c2ccccc21` [Example 37, (2,2,2-Trifluoro-ethyl)-carbamic acid (S)-1-[(S)-5-(2-benzyloxy-ethyl)-6-oxo-6,7-dihydro-5H-dibenzo[b,d]azepin-7-ylcarbamoyl]-ethyl ester]: the concentration for half-maximal inhibition (IC50) came to 18 nM. Next, `C[C@H](OC(=O)NCCC(F)(F)F)C(=O)N[C@@H]1C(=O)N(CCO)c2ccccc2-c2ccccc21` [Example 39, (3,3,3-Trifluoro-propyl)-carbamic acid (S)-1-[(S)-5-(2-hydroxy-ethyl)-6-oxo-6,7-dihydro-5H-dibenzo[b,d]azepin-7-ylcarbamoyl]-ethyl ester]: 16 nM; `C[C@@](F)(C(=O)NCCC(F)(F)C(F)(F)F)C(=O)N[C@@H]1C(=O)N(CCOCc2ccccc2)c2ccccc2-c2ccccc21` [Example 40, (R)—N—[(S)-5-(2-Benzyloxy-ethyl)-6-oxo-6,7-dihydro-5H-dibenzo[b,d]azepin-7-yl]-2-fluoro-2-methyl-N′-(3,3,4,4,4-pentafluoro-butyl)-malonamide]: 5 nM; `C[C@H](OC(=O)NCCF)C(=O)N[C@@H]1C(=O)N(CCOCc2ccccc2)c2ccccc2-c2ccccc21` [Example 41, (2-Fluoro-ethyl)-carbamic acid (S)-1-[(S)-5-(2-benzyloxy-ethyl)-6-oxo-6,7-dihydro-5H-dibenzo[b,d]azepin-7-ylcarbamoyl]-ethyl ester]: 480 nM.

`C[C@@](F)(C(=O)NCCC(F)(F)C(F)(F)F)C(=O)N[C@@H]1C(=O)N(CCO)c2ccccc2-c2ccccc21` [Example 42, (R)-2-Fluoro-N—[(S)-5-(2-hydroxy-ethyl)-6-oxo-6,7-dihydro-5H-dibenzo[b,d]azepin-7-yl]-2-methyl-N′-(3,3,4,4,4-pentafluoro-butyl)-malonamide]: the IC50 stood at 1 nM. Next, `C[C@](F)(C(=O)NCC(F)(F)F)C(=O)N[C@@H]1C(=O)N(CCOCc2ccccc2)c2ccccc2-c2ccccc21` [Example 43, (S)—N—[(S)-5-(2-Benzyloxy-ethyl)-6-oxo-6,7-dihydro-5H-dibenzo[b,d]azepin-7-yl]-2-fluoro-2-methyl-N′-(2,2,2-trifluoro-ethyl)-malonamide]: 13 nM.

For orientation: IC50 means the concentration needed to halve the response being measured.

Values taken from US7425551B2, “Malonamide derivatives” (Hoffmann-La Roche Inc., priority 2006, dated 2008).
